Target: Cav3.2 (Homo sapiens, UniProt O95180)
Assay: Calcium flux FLIPR assay, HEK293 cells recombinantly expressing Cav3.2
Format: cell-based
Details: Cav3.2-channel, Ca2+ entry stimulated by 10 mM CaCl2
In short: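 Fluo-4-loaded HEK293 cells stably expressing Cav3.2, seeded overnight at 37 °C; compounds diluted in TEAC buffer (pH 7.2) and preincubated 3 min before Ca2+ entry triggered with CaCl2 at 10 mM final. Area under FLIPR fluorescence trace fitted sigmoidally; IC50 relative to vehicle signal.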

Sequence of Cav3.2 (O95180 whole entry, looked up): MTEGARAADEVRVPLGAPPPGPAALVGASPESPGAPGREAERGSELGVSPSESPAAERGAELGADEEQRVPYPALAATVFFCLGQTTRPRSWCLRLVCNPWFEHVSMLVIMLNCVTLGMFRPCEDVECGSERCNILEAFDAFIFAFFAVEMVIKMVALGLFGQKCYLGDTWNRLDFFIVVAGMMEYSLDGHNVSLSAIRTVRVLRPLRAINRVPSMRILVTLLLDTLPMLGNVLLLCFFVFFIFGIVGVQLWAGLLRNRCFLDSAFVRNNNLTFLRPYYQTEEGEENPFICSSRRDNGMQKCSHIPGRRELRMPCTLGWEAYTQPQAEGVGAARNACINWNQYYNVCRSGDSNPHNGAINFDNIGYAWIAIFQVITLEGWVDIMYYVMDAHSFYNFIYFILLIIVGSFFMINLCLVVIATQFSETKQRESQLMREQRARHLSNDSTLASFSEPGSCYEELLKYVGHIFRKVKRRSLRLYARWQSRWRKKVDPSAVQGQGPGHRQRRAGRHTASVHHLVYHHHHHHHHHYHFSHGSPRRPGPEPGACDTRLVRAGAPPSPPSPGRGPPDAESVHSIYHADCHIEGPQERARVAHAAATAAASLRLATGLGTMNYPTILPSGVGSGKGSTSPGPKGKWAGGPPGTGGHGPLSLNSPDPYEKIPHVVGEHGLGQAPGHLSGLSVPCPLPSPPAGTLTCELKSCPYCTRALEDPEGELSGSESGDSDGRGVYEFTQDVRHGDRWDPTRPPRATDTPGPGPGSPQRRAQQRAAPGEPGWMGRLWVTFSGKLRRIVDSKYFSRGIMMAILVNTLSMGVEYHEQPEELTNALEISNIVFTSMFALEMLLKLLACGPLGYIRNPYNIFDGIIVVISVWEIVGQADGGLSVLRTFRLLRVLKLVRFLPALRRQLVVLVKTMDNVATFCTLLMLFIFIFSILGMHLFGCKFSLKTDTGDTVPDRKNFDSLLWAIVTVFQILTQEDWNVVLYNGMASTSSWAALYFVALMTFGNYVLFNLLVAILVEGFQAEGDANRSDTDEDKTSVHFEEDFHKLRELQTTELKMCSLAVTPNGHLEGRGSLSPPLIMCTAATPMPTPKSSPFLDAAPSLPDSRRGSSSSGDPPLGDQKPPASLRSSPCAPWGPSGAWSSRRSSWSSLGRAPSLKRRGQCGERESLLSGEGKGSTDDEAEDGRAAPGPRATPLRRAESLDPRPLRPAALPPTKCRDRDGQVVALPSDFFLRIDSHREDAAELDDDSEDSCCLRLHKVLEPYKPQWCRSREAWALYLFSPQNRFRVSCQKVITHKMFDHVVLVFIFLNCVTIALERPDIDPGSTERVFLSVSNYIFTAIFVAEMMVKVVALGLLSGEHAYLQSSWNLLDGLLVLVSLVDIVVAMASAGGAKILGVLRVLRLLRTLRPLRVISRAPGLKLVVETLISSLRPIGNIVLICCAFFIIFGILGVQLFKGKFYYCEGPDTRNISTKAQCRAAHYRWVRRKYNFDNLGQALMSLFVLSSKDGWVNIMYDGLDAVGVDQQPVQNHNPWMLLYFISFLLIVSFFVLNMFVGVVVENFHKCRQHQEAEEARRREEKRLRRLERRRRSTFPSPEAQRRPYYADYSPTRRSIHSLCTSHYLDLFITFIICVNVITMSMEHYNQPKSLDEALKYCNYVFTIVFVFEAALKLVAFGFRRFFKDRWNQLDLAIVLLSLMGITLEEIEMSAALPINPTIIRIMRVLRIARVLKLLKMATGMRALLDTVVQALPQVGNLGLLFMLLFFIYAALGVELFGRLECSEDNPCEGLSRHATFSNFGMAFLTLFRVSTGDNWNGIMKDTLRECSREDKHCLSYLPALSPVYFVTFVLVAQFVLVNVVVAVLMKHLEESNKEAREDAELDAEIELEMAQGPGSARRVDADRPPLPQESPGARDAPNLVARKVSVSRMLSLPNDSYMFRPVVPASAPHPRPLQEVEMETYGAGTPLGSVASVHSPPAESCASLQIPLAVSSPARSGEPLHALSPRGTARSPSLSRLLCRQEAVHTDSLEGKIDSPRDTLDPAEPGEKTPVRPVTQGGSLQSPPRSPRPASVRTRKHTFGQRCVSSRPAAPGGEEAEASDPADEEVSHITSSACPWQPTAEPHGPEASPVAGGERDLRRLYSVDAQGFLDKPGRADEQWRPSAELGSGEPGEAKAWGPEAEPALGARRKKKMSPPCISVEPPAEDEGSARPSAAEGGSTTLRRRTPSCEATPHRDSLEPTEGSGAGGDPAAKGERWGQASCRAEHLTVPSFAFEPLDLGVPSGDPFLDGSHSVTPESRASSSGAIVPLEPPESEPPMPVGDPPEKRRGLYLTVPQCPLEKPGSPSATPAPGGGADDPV

## COc1cc(Cn2ncc(NC(=O)Cc3ccc4c(c3)c(C)cn4C)n2)ccc1F [Example 118, 2-(1,3-Dimethyl-1H-indol-5-yl)-N-[2-(4-fluoro-3-methoxy-benzyl)-2H-[1,2,3]triazol-4-yl]-acetamide]
  IC50: 63 nM

## COc1cc(Cn2ncc(NC(=O)Cc3ccc(C(C)(C)C)cc3)n2)ccc1F [Example 119, 2-(4-tert-Butyl-phenyl)-N-[2-(4-fluoro-3-methoxy-benzyl)-2H-[1,2,3]triazol-4-yl]-acetamide]
  IC50: 62 nM

## COc1ccc(Cn2ncc(NC(=O)Cc3ccc(OCC4COC4)cc3)n2)cc1F [Example 120, N-[2-(3-Fluoro-4-methoxy-benzyl)-2H-[1,2,3]triazol-4-yl]-2-[4-(oxetan-3-ylmethoxy)-phenyl]-acetamide]
  IC50: 550 nM

## COc1ccc(Cn2ncc(NC(=O)Cc3ccc4cnn(C)c4c3)n2)cc1F [Example 121, N-[2-(3-Fluoro-4-methoxy-benzyl)-2H-[1,2,3]triazol-4-yl]-2-(1-methyl-1H-indazol-6-yl)-acetamide]
  IC50: 290 nM

## COc1ccc(Cn2ncc(NC(=O)Cc3ccc(C4(OC)COC4)cc3)n2)cc1F [Example 122, N-[2-(3-Fluoro-4-methoxy-benzyl)-2H-[1,2,3]triazol-4-yl]-2-[4-(3-methoxy-oxetan-3-yl)-phenyl]-acetamide]
  IC50: 360 nM

## COc1ccc(Cn2ncc(NC(=O)Cc3ccc(OCC4(C)COC4)cc3)n2)cc1F [Example 123, N-[2-(3-Fluoro-4-methoxy-benzyl)-2H-[1,2,3]triazol-4-yl]-2-[4-(3-methyl-oxetan-3-ylmethoxy)-phenyl]-acetamide]
  IC50: 870 nM

## COc1ccc(Cn2ncc(NC(=O)Cc3ccc(C4(C(F)(F)F)CC4)cc3)n2)cc1F [Example 124, N-[2-(3-Fluoro-4-methoxy-benzyl)-2H-[1,2,3]triazol-4-yl]-2-[4-(1-trifluoromethyl-cyclopropyl)-phenyl]-acetamide]
  IC50: 250 nM

## COc1ccc(Cn2ncc(NC(=O)Cc3ccc(OC4CC(F)(F)C4)cc3)n2)cc1F [Example 125, 2-[4-(3,3-Difluoro-cyclobutoxy)-phenyl]-N-[2-(3-fluoro-4-methoxy-benzyl)-2H-[1,2,3]triazol-4-yl]-acetamide]
  IC50: 180 nM

## COc1ccc(Cn2ncc(NC(=O)Cc3ccc(N4CCC(F)(F)C4)nc3)n2)cc1F [Example 126, 2-[6-(3,3-Difluoro-pyrrolidin-1-yl)-pyridin-3-yl]-N-[2-(3-fluoro-4-methoxy-benzyl)-2H-[1,2,3]triazol-4-yl]-acetamide]
  IC50: 47 nM

## COc1ccc(Cn2ncc(NC(=O)Cc3ccc(C4(F)COC4)cc3)n2)cc1F [Example 127, N-[2-(3-Fluoro-4-methoxy-benzyl)-2H-[1,2,3]triazol-4-yl]-2-[4-(3-fluoro-oxetan-3-yl)-phenyl]-acetamide]
  IC50: 110 nM

## CCn1ncc2cc(CC(=O)Nc3cnn(Cc4ccc(OC)c(F)c4)n3)ccc21 [Example 128, 2-(1-Ethyl-1H-indazol-5-yl)-N-[2-(3-fluoro-4-methoxy-benzyl)-2H-[1,2,3]triazol-4-yl]-acetamide]
  IC50: 150 nM

## COc1ccc(Cn2ncc(NC(=O)Cc3ccc4c(c3)c(C)cn4C)n2)cc1F [Example 129, 2-(1,3-Dimethyl-1H-indol-5-yl)-N-[2-(3-fluoro-4-methoxy-benzyl)-2H-[1,2,3]triazol-4-yl]-acetamide]
  IC50: 48 nM

## COc1ccc(Cn2ncc(NC(=O)Cc3ccc(C(C)(C)C)cc3)n2)cc1F [Example 130, 2-(4-tert-Butyl-phenyl)-N-[2-(3-fluoro-4-methoxy-benzyl)-2H-[1,2,3]triazol-4-yl]-acetamide]
  IC50: 62 nM

## N#Cc1ccc(Cn2ncc(NC(=O)Cc3ccc(OCC4COC4)cc3)n2)cc1F [Example 131, N-[2-(4-Cyano-3-fluoro-benzyl)-2H-[1,2,3]triazol-4-yl]-2-[4-(oxetan-3-ylmethoxy)-phenyl]-acetamide]
  IC50: 210 nM

## Cn1ncc2ccc(CC(=O)Nc3cnn(Cc4ccc(C#N)c(F)c4)n3)cc21 [Example 132, N-[2-(4-Cyano-3-fluoro-benzyl)-2H-[1,2,3]triazol-4-yl]-2-(1-methyl-1H-indazol-6-yl)-acetamide]
  IC50: 180 nM

## CCn1ncc2cc(CC(=O)Nc3cnn(Cc4ccc(C#N)c(F)c4)n3)ccc21 [Example 139, N-[2-(4-Cyano-3-fluoro-benzyl)-2H-[1,2,3]triazol-4-yl]-2-(1-ethyl-1H-indazol-5-yl)-acetamide]
  IC50: 69 nM

## Cc1cn(C)c2ccc(CC(=O)Nc3cnn(Cc4ccc(C#N)c(F)c4)n3)cc12 [Example 140, N-[2-(4-Cyano-3-fluoro-benzyl)-2H-[1,2,3]triazol-4-yl]-2-(1,3-dimethyl-1H-indol-5-yl)-acetamide]
  IC50: 14 nM

## COc1c(F)cc(Cn2ncc(NC(=O)Cc3ccc(OCC4COC4)cc3)n2)cc1F [Example 141, N-[2-(3,5-Difluoro-4-methoxy-benzyl)-2H-[1,2,3]triazol-4-yl]-2-[4-(oxetan-3-ylmethoxy)-phenyl]-acetamide]
  IC50: 86 nM

## COc1c(F)cc(Cn2ncc(NC(=O)Cc3ccc4cnn(C)c4c3)n2)cc1F [Example 142, N-[2-(3,5-Difluoro-4-methoxy-benzyl)-2H-[1,2,3]triazol-4-yl]-2-(1-methyl-1H-indazol-6-yl)-acetamide]
  IC50: 88 nM

## COc1c(F)cc(Cn2ncc(NC(=O)Cc3ccc(C4(OC)COC4)cc3)n2)cc1F [Example 143, N-[2-(3,5-Difluoro-4-methoxy-benzyl)-2H-[1,2,3]triazol-4-yl]-2-[4-(3-methoxy-oxetan-3-yl)-phenyl]-acetamide]
  IC50: 76 nM

## COc1c(F)cc(Cn2ncc(NC(=O)Cc3ccc(OCC4(C)COC4)cc3)n2)cc1F [Example 144, N-[2-(3,5-Difluoro-4-methoxy-benzyl)-2H-[1,2,3]triazol-4-yl]-2-[4-(3-methyl-oxetan-3-ylmethoxy)-phenyl]-acetamide]
  IC50: 56 nM

## COc1c(F)cc(Cn2ncc(NC(=O)Cc3ccc(C4(C(F)(F)F)CC4)cc3)n2)cc1F [Example 145, N-[2-(3,5-Difluoro-4-methoxy-benzyl)-2H-[1,2,3]triazol-4-yl]-2-[4-(1-trifluoromethyl-cyclopropyl)-phenyl]-acetamide]
  IC50: 120 nM

## COc1c(F)cc(Cn2ncc(NC(=O)Cc3ccc(OC4CC(F)(F)C4)cc3)n2)cc1F [Example 146, 2-[4-(3,3-Difluoro-cyclobutoxy)-phenyl]-N-[2-(3,5-difluoro4-methoxy-benzyl)-2H-[1,2,3]triazol-4-yl]-acetamide]
  IC50: 810 nM

## COc1c(F)cc(Cn2ncc(NC(=O)Cc3ccc(N4CCC(F)(F)C4)nc3)n2)cc1F [Example 147, N-[2-(3,5-Difluoro-4-methoxy-benzyl)-2H-[1,2,3]triazol-4-yl]-2-[6-(3,3-difluoro-pyrrolidin-1-yl)-pyridin-3-yl]-acetamide]
  IC50: 13 nM

## COc1c(F)cc(Cn2ncc(NC(=O)Cc3ccc(C4(F)COC4)cc3)n2)cc1F [Example 148, N-[2-(3,5-Difluoro-4-methoxy-benzyl)-2H-[1,2,3]triazol-4-yl]-2-[4-(3-fluoro-oxetan-3-yl)-phenyl]-acetamide]
  IC50: 35 nM

## CCn1ncc2cc(CC(=O)Nc3cnn(Cc4cc(F)c(OC)c(F)c4)n3)ccc21 [Example 149, N-[2-(3,5-Difluoro-4-methoxy-benzyl)-2H-[1,2,3]triazol-4-yl]-2-(1-ethyl-1H-indazol-5-yl)-acetamide]
  IC50: 29 nM

## COc1c(F)cc(Cn2ncc(NC(=O)Cc3ccc4c(c3)c(C)cn4C)n2)cc1F [Example 150, N-[2-(3,5-Difluoro-4-methoxy-benzyl)-2H-[1,2,3]triazol-4-yl]-2-(1,3-dimethyl-1H-indol-5-yl)-acetamide]
  IC50: 16 nM

## COc1cc(Cn2ncc(NC(=O)Cc3ccc4c(cnn4C)c3)n2)ccc1F [Example 151, N-[2-(4-Fluoro-3-methoxy-benzyl)-2H-[1,2,3]triazol-4-yl]-2-(1-methyl-1H-indazol-5-yl)-acetamide]
  IC50: 73 nM

## COc1ccc(Cn2ncc(NC(=O)Cc3ccc4c(cnn4C)c3)n2)cc1F [Example 152, N-[2-(3-Fluoro-4-methoxy-benzyl)-2H-[1,2,3]triazol-4-yl]-2-(1-methyl-1H-indazol-5-yl)-acetamide]
  IC50: 91 nM

## COc1cc(Cn2ncc(NC(=O)Cc3ccc(C(C)C)cc3)n2)ccc1F [Example 153, N-[2-(4-Fluoro-3-methoxy-benzyl)-2H-[1,2,3]triazol-4-yl]-2-(4-isopropyl-phenyl)-acetamide]
  IC50: 70 nM

## COc1ccc(Cn2ncc(NC(=O)Cc3ccc(C(C)C)cc3)n2)cc1F [Example 154, N-[2-(3-Fluoro-4-methoxy-benzyl)-2H-[1,2,3]triazol-4-yl]-2-(4-isopropyl-phenyl)-acetamide]
  IC50: 44 nM

## COc1cc(Cn2ncc(NC(=O)Cc3ccc(N4CCCC4)nc3)n2)ccc1F [Example 155, N-[2-(4-Fluoro-3-methoxy-benzyl)-2H-[1,2,3]triazol-4-yl]-2-(6-pyrrolidin-1-yl-pyridin-3-yl)-acetamide]
  IC50: 140 nM

## COc1ccc(Cn2ncc(NC(=O)Cc3ccc(N4CCCC4)nc3)n2)cc1F [Example 156, N-[2-(3-Fluoro-4-methoxy-benzyl)-2H-[1,2,3]triazol-4-yl]-2-(6-pyrrolidin-1-yl-pyridin-3-yl)-acetamide]
  IC50: 70 nM

## CC(C)(C#N)c1ccc(CC(=O)Nc2cnn(Cc3ccc(C#N)c(F)c3)n2)cc1 [Example 157, 2-[4-(Cyano-dimethyl-methyl)-phenyl]-N-[2-(4-cyano-3-fluoro-benzyl)-2H-[1,2,3]triazol-4-yl]-acetamide]
  IC50: 31 nM

## COc1cc(Cn2ncc(NC(=O)Cc3ccc(C(C)(C)C)cc3)n2)cc(F)c1C#N [Example 158, 2-(4-tert-Butyl-phenyl)-N-[2-(4-cyano-3-fluoro-5-methoxy-benzyl)-2H-[1,2,3]triazol-4-yl]-acetamide]
  IC50: 240 nM

## N#Cc1ccc(Cn2ncc(NC(=O)Cc3ccc(C(F)(F)F)cc3)n2)cc1F [Example 159, N-[2-(4-Cyano-3-fluoro-benzyl)-2H-[1,2,3]triazol-4-yl]-2-(4-trifluoromethyl-phenyl)-acetamide]
  IC50: 61 nM

Source: US10246426B2, “Triazole compounds as T-type calcium channel blockers” (IDORSIA PHARMACEUTICALS LTD, priority 2014, dated 2019)
